Results on 36 compounds are retold here after article PMC4964800 (Bioorganic & medicinal chemistry letters, 2016).

Assay type in all cases: cell-based
The subject of one assay is STAT1. In words: IFN-γ-induced STAT1 pathway activation assay. As to conditions: read-out: STAT1 IC50.
Another assay has as its system STAT3. As to the kind of experiment: IL-6-induced STAT3 activation high content. As to conditions: for IC50: Homo sapiens, CAL-33, read-out: STAT3 IC50; for times less active (STAT3) after exchanging R-substituents of 1a and 2b: compared with 1a and 2b; for fold improvement in STAT3 potency compared to original hit 2b: vs 2b.
Assay [1] concerns pSTAT3 and STAT3 target gene Cyclin D1. As to the kind of experiment: Western blot analysis in IL-6-stimulated Cal33 cells. As to conditions: IL-6 (50 ng/mL)-stimulated Cal33 cells. Background: Immunoblotting shows a protein as a band on a membrane.

For `Clc1ccc(C2=Nn3c(nnc3-c3[nH]nc4c3CCC4)SC2)cc1Cl` [Compound 1a], the IC50 is greater than 50 µM in the assay on STAT1 and 6.8 ± 3.7 µM in the assay with STAT3. Consider `Clc1ccc(C2=Nn3c(nnc3-c3cc(-c4ccccc4)n[nH]3)SC2)cc1Cl` [Compound 1b], for which the IC50 in the assay with STAT1 is greater than 50 µM. Also, the “times less active (STAT3) after exchanging R-substituents of 1a and 2b” value with STAT3 was 3–4 times. Take `Clc1ccc(C2=Nn3c(nnc3-c3[nH]nc4c3CCC4)SC2)cc1` [Compound 2a]: the IC50 in the assay with STAT1 is greater than 50 µM. For the same compound, the “times less active (STAT3) after exchanging R-substituents of 1a and 2b” value with STAT3 is 3–4 times. For `Clc1ccc(C2=Nn3c(nnc3-c3cc(-c4ccccc4)[nH]n3)SC2)cc1` [Compound 2b], the IC50 with STAT1 was greater than 50 µM; with STAT3, 9.6 ± 7.8 µM. As to `Clc1cccc(C2=Nn3c(nnc3-c3[nH]nc4c3CCC4)SC2)c1` [Compound 4a], the concentration for half-maximal inhibition (IC50) with STAT1 is greater than 50 µM. Regarding `Clc1cccc(C2=Nn3c(nnc3-c3cc(-c4ccccc4)n[nH]3)SC2)c1` [Compound 4b], the IC50 in the assay with STAT1 is 45.9 ± 8.3 µM; in the assay on STAT3 it was 5.6 ± 4 µM.

`c1ccc(C2=Nn3c(nnc3-c3[nH]nc4c3CCC4)SC2)cc1` [Compound 5a]: the IC50 with STAT1 was greater than 50 µM; with STAT3, 21.2 ± 23.5 µM. Turning to `c1ccc(C2=Nn3c(nnc3-c3cc(-c4ccccc4)[nH]n3)SC2)cc1` [Compound 5b], the IC50 in the assay with STAT1 was greater than 50 µM.

As to `COc1ccc(C2=Nn3c(nnc3-c3[nH]nc4c3CCC4)SC2)cc1` [Compound 6a], the IC50 in the assay on STAT1 worked out at 40.6 ± 7.5 µM. On the same count and under the same terms, the figure for `COc1ccc(C2=Nn3c(nnc3-c3cc(-c4ccccc4)n[nH]3)SC2)cc1` [Compound 6b] is greater than 50 µM; for `c1cc(C2=Nn3c(nnc3-c3[nH]nc4c3CCC4)SC2)ccn1` [Compound 7a] it is greater than 50 µM.

For `c1ccc(-c2cc(-c3nnc4n3N=C(c3ccncc3)CS4)[nH]n2)cc1` [Compound 7b], in the assay with STAT1, the half-inhibitory concentration (IC50) was greater than 50 µM. `Clc1ccc(C2=Nn3c(nnc3-c3[nH]nc4c3CCC4)SC2)s1` [Compound 8a]: in the assay with STAT1, the IC50 was greater than 50 µM. Still for that read-out and setting: the figure for `Clc1ccc(C2=Nn3c(nnc3-c3cc(-c4ccccc4)n[nH]3)SC2)s1` [Compound 8b] is greater than 50 µM; for `C1=Nn2c(nnc2-c2[nH]nc3c2CCC3)SC1` [Compound 9a] it is greater than 50 µM. For the compound `C1=Nn2c(nnc2-c2cc(-c3ccccc3)n[nH]2)SC1` [Compound 9b], the IC50 with STAT1 is greater than 50 µM.

As to `CC1=Nn2c(nnc2-c2[nH]nc3c2CCC3)SC1` [Compound 10a], in the assay with STAT1, the IC50 is greater than 50 µM. Take `CC1=Nn2c(nnc2-c2cc(-c3ccccc3)[nH]n2)SC1` [Compound 10b]: in the assay with STAT1, the IC50 is greater than 50 µM. For `C1CCC(C2=Nn3c(nnc3-c3[nH]nc4c3CCC4)SC2)CC1` [Compound 11a], the IC50 in the assay on STAT1 was greater than 50 µM. On the same count and under the same terms, the figure for `c1ccc(-c2cc(-c3nnc4n3N=C(C3CCCCC3)CS4)[nH]n2)cc1` [Compound 11b] is greater than 50 µM.

On to `COc1ccc(C2CSc3nnc(-c4[nH]nc5c4CCC5)n3N2)cc1` (stereo not drawn) [Compound 12], for which the “activity in the STAT3 assay (in words)” value with STAT3 is “inactive”. The same measure, in the same setting: in the case of `COc1ccc(C2CSc3nnc(-c4cc(-c5ccccc5)n[nH]4)n3N2C(C)=O)cc1` (stereo not drawn) [Compound 13] it was “inactive”. As to `Fc1ccc(-c2cc(-c3nnc4n3N=C(c3ccc(Cl)c(Cl)c3)CS4)[nH]n2)cc1` [Compound 14], the “fold improvement in STAT3 potency over unsubstituted analog 1b” value in the assay with STAT3 (vs 1b) was ~ 4 fold. Turning to `Clc1ccc(C2=Nn3c(nnc3-c3[nH]nc4c3CCCC4)SC2)cc1Cl` [Compound 16], in the assay on STAT3 (vs 1a), the “fold less active than cyclopentyl analog 1a” value was ~ 2 fold. In the case of `CC1Sc2nnc(-c3[nH]nc4c3CCC4)n2N=C1c1ccc(Cl)c(Cl)c1` (stereo not drawn) [Compound 17], the figures for the concentration for half-maximal inhibition (IC50) in the assay on STAT1 and with STAT3 were greater than 50 µM and 8.2 ± 2.2 µM, respectively.

Take `COc1ccc(C2=Nn3c(nnc3-c3[nH]nc4c3CCC4)SC2C)cc1` (stereo not drawn) [Compound 18]: the IC50 was greater than 50 µM with STAT1 and 9.1 µM in the assay on STAT3. For `CC1Sc2nnc(-c3cc(-c4ccccc4)n[nH]3)n2N=C1c1ccccc1` (stereo not drawn) [Compound 19], the IC50 in the assay on STAT1 stood at 15 µM. For the same compound, in the assay on STAT3, the 50% inhibitory concentration (IC50) was found to be 3.4 µM and the “fold improvement in STAT3 potency compared to original hit 2b” value (from here on “fold improvement … to original hit 2b”) is recorded as 2–3 fold. For the same compound, in assay [1], the “downstream STAT3 target gene Cyclin D1 by Western blot” value is “significant inhibition” and the “pSTAT3 levels by Western blot” value is reported as “pronounced decreases”. With `CC1Sc2nnc(-c3cc(-c4ccc(F)cc4)n[nH]3)n2N=C1c1ccccc1` (stereo not drawn) [Compound 20], the 50% inhibitory concentration (IC50) with STAT1 was greater than 30 µM. In the assay with STAT3, the half-inhibitory concentration (IC50) turned out to be 3.8 ± 0.8 µM and the “fold improvement … to original hit 2b” value is 2–3 fold.

Consider `COc1ccc(C2=Nn3c(nnc3-c3cc(-c4ccc(F)cc4)n[nH]3)SC2C)cc1` (stereo not drawn) [Compound 21], for which the IC50 in the assay with STAT1 was greater than 30 µM. Moreover, in the assay on STAT3, the IC50 worked out at 4.2 µM and the “fold improvement … to original hit 2b” value is listed as 2–3 fold. In the case of `COc1ccc(C2=Nn3c(nnc3-c3cc(-c4ccc(Cl)cc4)n[nH]3)SC2C)cc1` (stereo not drawn) [Compound 22], in assay [1], the “downstream STAT3 target gene Cyclin D1 by Western blot” value is “significant inhibition” and the “pSTAT3 levels by Western blot” value is listed as “pronounced decreases”.

For `CC(C)C1Sc2nnc(-c3[nH]nc4c3CCC4)n2N=C1c1ccc(Cl)c(Cl)c1` (stereo not drawn) [Compound 23], the IC50 in the assay with STAT1 was greater than 50 µM; in the assay on STAT3, 4.4 µM. For the compound `COc1ccc(C2=Nn3c(nnc3-c3[nH]nc4c3CCC4)SC2C(C)C)cc1` (stereo not drawn) [Compound 24], in the assay with STAT1, the IC50 was greater than 50 µM. For the compound `CC(C)CC1Sc2nnc(-c3[nH]nc4c3CCC4)n2N=C1c1ccc(Cl)c(Cl)c1` (stereo not drawn) [Compound 25], the results for the IC50 in the assay with STAT1 and with STAT3 were greater than 50 µM and 4.1 µM, respectively. For the compound `COc1ccc(C2=Nn3c(nnc3-c3cc(-c4ccccc4)n[nH]3)SC2CC(C)C)cc1` (stereo not drawn) [Compound 26], in the assay on STAT1, the IC50 was greater than 50 µM. For `Clc1ccc(C2=Nn3c(nnc3-c3[nH]nc4c3CCC4)SC2Cc2ccccc2)cc1Cl` (stereo not drawn) [Compound 27], the IC50 in the assay with STAT1 is greater than 50 µM; in the assay with STAT3, 7.5 µM. In the case of `CC1(C)Sc2nnc(-c3[nH]nc4c3CCC4)n2N=C1c1ccc(Cl)c(Cl)c1` [Compound 30], the IC50 with STAT1 is greater than 50 µM; in the assay with STAT3 it was 18.6 µM.

Broadly, the IC50 is the concentration needed to halve the response being measured.
